Earlier results on one compound are cited in US5173304A, “Agents for the treatment of severe pain and preparation of said agents” (Dolorgiet Beteiligungs GmbH, priority 1989, dated 1992).

For this series the following is noted: in vivo.

For `CC(C)Cc1ccc(C(C)C(=O)O)cc1` (centres unmarked) [ibuprofen], the Analgesic effectiveness result is “effective analgesic” and the Tolerability result was “well tolerated”.
